Reference: patent publication US10660877B2 (BRISTOL-MYERS SQUIBB COMPANY, priority 2016, dated 2020)
Like-named read-outs stand apart in the source and are kept apart here.

How the values were obtained:
human TLR8 = human TLR8 (Homo sapiens (Human), UniProt Q9NR97); assay: TLR8 inhibition reporter assay (HEK-Blue cells, SEAP reporter, R848 stimulation);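 further: compounds tested from 0.05 nM to 50 µM, 22 h at 37 °C, SEAP measured with HEK-Blue Detection, inhibition relative to agonist plus DMSO versus a known inhibitor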
Sequence of human TLR8 (Q9NR97 27-1041): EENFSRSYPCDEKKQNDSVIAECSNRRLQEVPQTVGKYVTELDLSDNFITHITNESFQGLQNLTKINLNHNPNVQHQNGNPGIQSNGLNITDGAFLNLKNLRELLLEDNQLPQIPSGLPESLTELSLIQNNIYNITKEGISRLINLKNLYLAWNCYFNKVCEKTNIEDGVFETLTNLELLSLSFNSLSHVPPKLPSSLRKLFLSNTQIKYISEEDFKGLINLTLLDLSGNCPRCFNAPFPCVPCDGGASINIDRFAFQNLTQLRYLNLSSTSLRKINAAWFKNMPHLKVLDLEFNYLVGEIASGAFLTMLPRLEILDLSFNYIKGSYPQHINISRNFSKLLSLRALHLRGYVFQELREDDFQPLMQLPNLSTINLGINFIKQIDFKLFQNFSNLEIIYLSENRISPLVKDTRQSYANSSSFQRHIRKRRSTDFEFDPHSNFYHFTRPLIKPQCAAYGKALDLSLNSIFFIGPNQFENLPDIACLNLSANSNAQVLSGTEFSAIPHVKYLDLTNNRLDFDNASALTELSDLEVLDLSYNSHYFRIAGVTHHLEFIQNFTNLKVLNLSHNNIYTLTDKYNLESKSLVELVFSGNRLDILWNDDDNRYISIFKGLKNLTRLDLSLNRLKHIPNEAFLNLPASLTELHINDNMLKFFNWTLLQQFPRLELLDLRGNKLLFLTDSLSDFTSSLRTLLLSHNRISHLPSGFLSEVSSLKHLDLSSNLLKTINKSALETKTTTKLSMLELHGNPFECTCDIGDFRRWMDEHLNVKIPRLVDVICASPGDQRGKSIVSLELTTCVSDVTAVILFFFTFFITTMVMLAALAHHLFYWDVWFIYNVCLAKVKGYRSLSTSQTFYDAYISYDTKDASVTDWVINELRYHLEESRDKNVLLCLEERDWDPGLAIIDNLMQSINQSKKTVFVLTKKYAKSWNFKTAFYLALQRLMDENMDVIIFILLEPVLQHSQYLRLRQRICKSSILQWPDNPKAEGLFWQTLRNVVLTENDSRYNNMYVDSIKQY

human TLR7 = human TLR7 (Homo sapiens (Human), UniProt Q9NYK1); assay: TLR7 inhibition reporter assay (HEK-Blue cells, SEAP reporter, gardiquimod stimulation); format: cell-based
Sequence of human TLR7 (Q9NYK1 27-1049): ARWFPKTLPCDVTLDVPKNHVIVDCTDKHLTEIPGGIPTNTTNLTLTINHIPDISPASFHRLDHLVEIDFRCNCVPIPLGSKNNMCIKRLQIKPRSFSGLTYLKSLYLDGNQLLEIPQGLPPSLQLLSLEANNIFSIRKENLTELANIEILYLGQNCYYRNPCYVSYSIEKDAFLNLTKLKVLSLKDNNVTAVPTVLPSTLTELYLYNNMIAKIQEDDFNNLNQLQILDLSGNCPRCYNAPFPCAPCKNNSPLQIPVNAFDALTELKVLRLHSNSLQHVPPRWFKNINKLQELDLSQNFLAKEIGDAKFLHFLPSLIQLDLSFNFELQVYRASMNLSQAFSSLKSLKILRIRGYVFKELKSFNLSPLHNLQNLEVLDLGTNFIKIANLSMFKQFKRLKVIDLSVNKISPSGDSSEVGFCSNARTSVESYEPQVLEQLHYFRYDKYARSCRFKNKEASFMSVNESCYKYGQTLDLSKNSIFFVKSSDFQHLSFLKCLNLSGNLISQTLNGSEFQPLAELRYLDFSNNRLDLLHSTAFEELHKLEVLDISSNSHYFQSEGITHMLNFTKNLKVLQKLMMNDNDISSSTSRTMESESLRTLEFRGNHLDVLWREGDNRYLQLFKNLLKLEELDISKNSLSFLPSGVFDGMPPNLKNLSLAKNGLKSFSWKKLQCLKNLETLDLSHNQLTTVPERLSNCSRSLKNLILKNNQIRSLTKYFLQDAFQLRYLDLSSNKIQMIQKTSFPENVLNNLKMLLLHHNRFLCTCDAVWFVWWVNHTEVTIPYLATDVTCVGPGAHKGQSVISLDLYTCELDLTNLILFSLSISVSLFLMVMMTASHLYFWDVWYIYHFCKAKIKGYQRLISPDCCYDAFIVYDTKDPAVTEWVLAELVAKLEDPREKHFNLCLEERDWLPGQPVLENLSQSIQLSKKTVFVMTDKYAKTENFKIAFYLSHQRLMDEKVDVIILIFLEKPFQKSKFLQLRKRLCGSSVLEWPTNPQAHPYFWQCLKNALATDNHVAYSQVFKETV

human TLR9 = human TLR9 (Homo sapiens (Human), UniProt Q9NR96); assay: TLR9 inhibition reporter assay (HEK-Blue cells, SEAP reporter, ODN2006 stimulation);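 further: compounds tested over 0.05 nM to 50 µM, 22 h incubation, inhibition taken as SEAP signal drop from agonist plus DMSO wells toward a known inhibitor control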
Sequence of human TLR9 (Q9NR96 26-1032): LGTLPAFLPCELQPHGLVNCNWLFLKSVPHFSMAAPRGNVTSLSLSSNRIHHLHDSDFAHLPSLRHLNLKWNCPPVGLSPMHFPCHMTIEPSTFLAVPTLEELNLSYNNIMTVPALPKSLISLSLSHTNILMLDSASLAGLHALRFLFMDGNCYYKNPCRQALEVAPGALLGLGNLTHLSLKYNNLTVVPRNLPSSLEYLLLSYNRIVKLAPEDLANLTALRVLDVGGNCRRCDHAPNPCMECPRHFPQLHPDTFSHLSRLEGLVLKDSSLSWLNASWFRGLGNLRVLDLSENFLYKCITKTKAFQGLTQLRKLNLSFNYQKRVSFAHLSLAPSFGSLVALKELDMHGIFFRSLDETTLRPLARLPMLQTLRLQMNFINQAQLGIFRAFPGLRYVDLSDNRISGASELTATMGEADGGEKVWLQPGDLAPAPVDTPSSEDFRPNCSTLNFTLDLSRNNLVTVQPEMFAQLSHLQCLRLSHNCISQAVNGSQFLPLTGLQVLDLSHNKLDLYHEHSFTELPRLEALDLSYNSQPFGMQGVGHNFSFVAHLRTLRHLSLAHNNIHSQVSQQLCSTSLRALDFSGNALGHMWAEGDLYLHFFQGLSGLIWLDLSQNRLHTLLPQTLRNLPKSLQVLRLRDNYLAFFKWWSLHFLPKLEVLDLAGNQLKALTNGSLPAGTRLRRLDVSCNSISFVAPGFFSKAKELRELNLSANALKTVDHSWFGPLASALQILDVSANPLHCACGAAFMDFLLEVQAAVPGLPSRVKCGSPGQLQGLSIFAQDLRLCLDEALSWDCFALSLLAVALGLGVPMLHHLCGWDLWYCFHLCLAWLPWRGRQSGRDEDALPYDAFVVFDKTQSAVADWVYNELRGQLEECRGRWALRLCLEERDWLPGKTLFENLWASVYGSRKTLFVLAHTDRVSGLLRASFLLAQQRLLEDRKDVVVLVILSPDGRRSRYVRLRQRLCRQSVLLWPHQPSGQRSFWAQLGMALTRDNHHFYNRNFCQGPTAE

[1] = read-out: TLR8 IC50, HEK-Blue cells overexpressing human TLR8, R848 15.9 μM
[2] = HEK-Blue cells overexpressing human TLR7, gardiquimod 7.5 μM
[3] = read-out: TLR9 IC50, HEK-Blue cells overexpressing human TLR9, ODN2006 5 nM
[4] = read-out: TLR8 IC50, HEK-Blue cells, R848 15.9 μM
[5] = HEK-Blue cells, gardiquimod 7.5 μM
[6] = read-out: TLR9 IC50, HEK-Blue cells, ODN2006 5 nM

Compound | IC50 (human TLR8; [1]) [nM] | IC50 (human TLR7; [2]) [nM] | IC50 (human TLR9; [3]) [nM] | IC50 (human TLR8; [4]) [nM] | IC50 (human TLR7; [5]) [nM] | IC50 (human TLR9; [6]) [nM]
Cc1cc(-c2[nH]c3ccc(C4CCNC(=O)C4)cc3c2C(C)C)ccn1 (stereo not drawn) [Example 490, 4-(3-isopropyl-2-(2-methylpyridin-4-yl)-1H-indol-5-yl)piperidin-2-one] | 67.4 | 186 | > 50000 | – | – | –
Cc1cc(-c2[nH]c3cc(F)c(C4CCNCC4)cc3c2C(C)C)c(C)cn1 [Example 80, 2-(2,5-dimethylpyridin-4-yl)-6-fluoro-3-isopropyl-5-(piperidin-4-yl)-1H-indole] | 1.3 | 2.7 | 583 | – | – | –
Cc1cc(-c2[nH]c3ccc(C4CCN(C(=O)C5(C)CC5)CC4)cc3c2C(C)C)ccn1 [Example 610, (4-(3-isopropyl-2-(2-methylpyridin-4-yl)-1H-indol-5-yl)piperidin-1-yl)(1-methylcyclopropyl)methanone] | 163 | 48.6 | 47300 | – | – | –
COC(=O)C1CC(N2CCC(c3ccc4[nH]c(-c5ccnc(C)c5)c(C(C)C)c4c3)CC2)CCN1 (stereo not drawn) [Example 704, methyl 4-(3-isopropyl-2-(2-methylpyridin-4-yl)-1H-indol-5-yl)-[1,4′-bipiperidine]-2′-carboxylate] | 4.1 | 20.9 | 551 | – | – | –
Cc1cc(-c2[nH]c3ccc(C4CCN(C(=O)C5(N)CC5)CC4)cc3c2C(C)C)cc(C)n1 [Example 195, (1-aminocyclopropyl)(4-(2-(2,6-dimethylpyridin-4-yl)-3-isopropyl-1H-indol-5-yl)piperidin-1-yl)methanone] | 54 | 6 | 5270 | – | – | –
Cc1cc(-c2[nH]c3ccc(C4CCN(C(=O)CN5CCC(F)CC5)CC4)cc3c2C(C)C)cc(C)n1 [Example 388, 1-(4-(2-(2,6-dimethylpyridin-4-yl)-3-isopropyl-1H-indol-5-yl)piperidin-1-yl)-2-(4-fluoropiperidin-1-yl)ethan-1-one] | 20.9 | 4.3 | 831 | – | – | –
CC(C)c1c(-c2ccnc(F)c2)[nH]c2ccc(C3CCN(C(=O)CN(C)C)CC3)cc12 [Example 522, 2-(dimethylamino)-1-(4-(2-(2-fluoropyridin-4-yl)-3-isopropyl-1H-indol-5-yl)piperidin-1-yl)ethan-1-one] | 47.9 | 23.6 | 2010 | – | – | –
Cc1cc(-c2[nH]c3ccc(C4CCN(CC(=O)N5C[C@H](C)C[C@@H]5CO)CC4)cc3c2C(C)C)cc(C)n1 [Example 290, 2-(4-(2-(2,6-dimethylpyridin-4-yl)-3-isopropyl-1H-indol-5-yl)piperidin-1-yl)-1-((2R,4R)-2-(hydroxymethyl)-4-methylpyrrolidin-1-yl) ethan-1-one] | 66.8 | 12 | 870 | – | – | –
Cc1cc(-c2[nH]c3ccc(C4CCN(C(=O)[C@H]5CC[C@H](N)CC5)CC4)cc3c2C(C)C)ccn1 [Example 764, ((1r,4r)-4-aminocyclohexyl) (4-(3-isopropyl-2-(2-methylpyridin-4-yl)-1H-indol-5-yl)piperidin-1-yl)methanone] | 262 | 174 | 603 | – | – | –
Cc1cc(-c2[nH]c3ccc(C4CCN(C5CCN(C(C)C)CC5)CC4)cc3c2C)ccn1 [Example 811, 5-(1′-isopropyl-[1,4′-bipiperidin]-4-yl)-3-methyl-2-(2-methylpyridin-4-yl)-1H-indole] | – | – | – | 47.2 | 117 | 23
CCc1c(-c2cc(C)nc(C)c2)[nH]c2ccc(C3CCN(C(=O)CN(C)C)CC3)cc12 [Example 528, 2-(dimethylamino)-1-(4-(2-(2,6-dimethylpyridin-4-yl)-3-ethyl-1H-indol-5-yl)piperidin-1-yl)ethan-1-one] | 50.9 | 16 | 150 | – | – | –
Cc1cc(-c2[nH]c3ccc(C4CCN(C(=O)CN5CC6CCC(C5)O6)CC4)cc3c2C(C)C)cc(C)n1 [Example 389, 2-(8-oxa-3-azabicyclo[3.2.1]octan-3-yl)-1-(4-(2-(2,6-dimethylpyridin-4-yl)-3-isopropyl-1H-indol-5-yl)piperidin-1-yl)ethan-1-one] | 31.3 | 10.3 | 880 | – | – | –
Cc1nccc(-c2[nH]c3ccc(C4CCNCC4)cc3c2C(C)C)c1C [Example 30, 2-(2,3-dimethylpyridin-4-yl)-3-isopropyl-5-(piperidin-4-yl)-1H-indole] | 22.3 | 28.5 | 708 | – | – | –
Cc1nccc(-c2[nH]c3ccc(C4CCN(C5CCN(C(C)C)CC5)CC4)cc3c2C)c1C [Example 812, 2-(2,3-dimethylpyridin-4-yl)-5-(1′-isopropyl-[1,4′-bipiperidin]-4-yl)-3-methyl-1H-indole] | – | – | – | 44.5 | 404 | 35
Cc1cc(-c2[nH]c3cc(F)c(C4CCN(CC(=O)N(C)C)CC4)cc3c2C(C)C)cc(C)n1 [Example 837, 2-(4-(2-(2,6-dimethylpyridin-4-yl)-6-fluoro-3-isopropyl-1H-indol-5-yl)piperidin-1-yl)-N,N-dimethylacetamide] | – | – | – | 11.4 | 1.9 | 194
Cc1cc(-c2[nH]c3ccc(C4CCN(C(=O)CN5CCC[C@@H]5CO)CC4)cc3c2C(C)C)cc(C)n1 [Example 412, (R)-1-(4-(2-(2,6-dimethylpyridin-4-yl)-3-isopropyl-1H-indol-5-yl)piperidin-1-yl)-2-(2-(hydroxymethyl)pyrrolidin-1-yl)ethan-1-one] | 34 | 4.7 | 568 | – | – | –

Further lines, results first:

IC50 (human TLR8; [1]) [nM] | IC50 (human TLR7; [2]) [nM] | IC50 (human TLR9; [3]) [nM] | IC50 (human TLR8; [4]) [nM] | IC50 (human TLR7; [5]) [nM] | IC50 (human TLR9; [6]) [nM] | Compound
13.2 | 13.7 | 1120 | – | – | – | Cc1cc(-c2[nH]c3ccc(C4CCN(CC(O)C(F)(F)F)CC4)cc3c2C(C)C)cc(C)n1 (stereo not drawn) [Example 317, 3-(4-(2-(2,6-dimethylpyridin-4-yl)-3-isopropyl-1H-indol-5-yl)piperidin-1-yl)-1,1-trifluoropropan-2-ol]
104 | 408 | > 50000 | – | – | – | Cc1cc(-c2[nH]c3ccc(C4CCN(Cc5nnn[nH]5)CC4)cc3c2C(C)C)c(F)cn1 [Example 696, 5-(1-((1H-tetrazol-5-yl)methyl)piperidin-4-yl)-2-(5-fluoro-2-methylpyridin-4-yl)-3-isopropyl-1H-indole]
20.7 | 223 | > 50000 | – | – | – | Cc1cc(-c2[nH]c3ccc(C4CCN(Cc5nnc(C6CC6)o5)CC4)cc3c2C(C)C)c(C)cn1 [Example 697, 2-cyclopropyl-5-((4-(2-(2,5-dimethylpyridin-4-yl)-3-isopropyl-1H-indol-5-yl)piperidin-1-yl)methyl)-1,3,4-oxadiazole]
7.8 | 20.7 | 3690 | – | – | – | COc1cc(OC)nc(CN2CCC(c3ccc4[nH]c(-c5cc(C)ncc5F)c(C(C)C)c4c3)CC2)n1 [Example 694, 5-(1-((4,6-dimethoxypyrimidin-2-yl)methyl)piperidin-4-yl)-2-(5-fluoro-2-methylpyridin-4-yl)-3-isopropyl-1H-indole]
19.8 | 3.7 | 227 | – | – | – | Cc1cc(-c2[nH]c3ccc(C4CCN(CC(=O)N5CCC(C)CC5)CC4)cc3c2C(C)C)cc(C)n1 [Example 269, 2-(4-(2-(2,6-dimethylpyridin-4-yl)-3-isopropyl-1H-indol-5-yl)piperidin-1-yl)-1-(4-methylpiperidin-1-yl)ethan-1-one]
100 | 25.6 | 2670 | – | – | – | CCCCN(CCO)C(=O)CN1CCC(c2ccc3[nH]c(-c4cc(C)nc(C)c4)c(C(C)C)c3c2)CC1 [Example 298, N-butyl-2-(4-(2-(2,6-dimethylpyridin-4-yl)-3-isopropyl-1H-indol-5-yl)piperidin-1-yl)-N-(2-hydroxyethyl)acetamide]
30.6 | 3 | 2050 | – | – | – | COc1ncc(CN(C)CC(=O)N2CCC(c3ccc4[nH]c(-c5cc(C)nc(C)c5)c(C(C)C)c4c3)CC2)cn1 [Example 418, 1-(4-(2-(2,6-dimethylpyridin-4-yl)-3-isopropyl-1H-indol-5-yl)piperidin-1-yl)-2-(((2-methoxypyrimidin-5-yl)methyl)(methyl)amino)ethan-1-one]
45.9 | 43 | > 50000 | – | – | – | CC(=O)N1CCC(c2ccc3[nH]c(-c4cc(C)ncc4C)c(C(C)C)c3c2)CC1 [Example 584, 1-(4-(2-(2,5-dimethylpyridin-4-yl)-3-isopropyl-1H-indol-5-yl)piperidin-1-yl)ethan-1-one]
2.3 | 3.9 | 2660 | – | – | – | Cc1cc(-c2[nH]c3ccc(C4CCN(CCO)CC4)cc3c2C(C)C)c(F)cn1 [Example 647, 2-(4-(2-(5-fluoro-2-methylpyridin-4-yl)-3-isopropyl-1H-indol-5-yl)piperidin-1-yl)ethan-1-ol]
2.8 | 2.1 | 437 | – | – | – | Cc1cc(-c2[nH]c3ccc(C4CCN(CCO)CC4)cc3c2C(C)C)cc(C)n1 [Example 329, 2-(4-(2-(2,6-dimethylpyridin-4-yl)-3-isopropyl-1H-indol-5-yl)piperidin-1-yl)ethan-1-ol]
245 | 119 | 12200 | – | – | – | Cc1cc(-c2[nH]c3ccc(C4CCN(S(=O)(=O)C(C)C)CC4)cc3c2C(C)C)ccn1 [Example 544, 3-isopropyl-5-(1-(isopropylsulfonyl)piperidin-4-yl)-2-(2-methylpyridin-4-yl)-1H-indole]
7.2 | 3 | 416 | – | – | – | Cc1cc(-c2[nH]c3ccc(C4CCN(CC(=O)NCC(C)(C)O)CC4)cc3c2C(C)C)cc(C)n1 [Example 268, 2-(4-(2-(2,6-dimethylpyridin-4-yl)-3-isopropyl-1H-indol-5-yl)piperidin-1-yl)-N-(2-hydroxy-2-methylpropyl)acetamide]
